Source: the supplement of paper PMC10307832

Experiments:
Experiment in all cases: relative viability (nuclei count vs DMSO), 5 days (fraction); higher = more cells survive
TPCA-1 + Alpelisib = compound: C1=CC(=CC=C1C2=CC(=C(S2)NC(=O)N)C(=O)N)F [TPCA-1] + Cc1nc(NC(=O)N2CCC[C@H]2C(N)=O)sc1-c1ccnc(C(C)(C)C(F)(F)F)c1 [Alpelisib] (partner 2 µM)
Outline: (§1)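 Relative viability equals treated-well nuclei counts divided by vehicle-well nuclei counts. Counts came from 4× images of lung cancer cell lines grown in 1536-well plates for 5 days after pin-tool dosing on the day after seeding. Dosing used one drug alone or a fixed anchor-drug dose plus five library-drug doses (not always all listed) in √10 steps, and values are medians of duplicate plates.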

[1] = compound: C1/C(=C\C2=CC=CS2)/C(=O)/C(=C/C3=CC=CS3)/C1 + O=C(c1cc(Cc2n[nH]c(=O)c3ccccc23)ccc1F)N1CCN(C(=O)C2CC2)CC1 [Olaparib] (partner 8 µM)
Outline: as §1

[2] = compound: C1/C(=C\C2=CC=CS2)/C(=O)/C(=C/C3=CC=CS3)/C1 + C[C@]1(O)C[C@@H](c2nc(-c3ccc4ccc(-c5ccccc5)nc4c3)c3c(N)nccn32)C1 [Linsitinib] (partner 1 µM)
Outline: as §1

TPCA-1 + Dasatinib = compound: C1=CC(=CC=C1C2=CC(=C(S2)NC(=O)N)C(=O)N)F [TPCA-1] + Cc1nc(Nc2ncc(C(=O)Nc3c(C)cccc3Cl)s2)cc(N2CCN(CCO)CC2)n1 [Dasatinib] (partner 0.075 µM)
Outline: as §1

Row | Cell Line | relative viability (TPCA-1 + Alpelisib; first compound 0.04 µM) | relative viability (TPCA-1 + Alpelisib; first compound 0.1265 µM) | relative viability (TPCA-1 + Alpelisib; first compound 0.4 µM) | relative viability (TPCA-1 + Alpelisib; first compound 1.265 µM) | relative viability (TPCA-1 + Alpelisib; first compound 4 µM) | relative viability ([1]; first compound 0.2 µM) | relative viability ([1]; first compound 0.6325 µM) | relative viability ([1]; first compound 2 µM) | relative viability ([1]; first compound 6.325 µM) | relative viability ([1]; first compound 20 µM) | relative viability ([2]; first compound 0.2 µM) | relative viability ([2]; first compound 0.6325 µM) | relative viability ([2]; first compound 2 µM) | relative viability ([2]; first compound 6.325 µM) | relative viability ([2]; first compound 20 µM) | relative viability (TPCA-1 + Dasatinib; first compound 0.04 µM) | relative viability (TPCA-1 + Dasatinib; first compound 0.1265 µM) | relative viability (TPCA-1 + Dasatinib; first compound 0.4 µM) | relative viability (TPCA-1 + Dasatinib; first compound 1.265 µM) | relative viability (TPCA-1 + Dasatinib; first compound 4 µM)
1 | NCI-H1755 | 0.937 | 0.88 | 0.893 | 0.806 | 0.526 | 0.88 | 0.907 | 0.916 | 0.749 | 0.877 | 1.06 | 1.07 | 1.04 | 0.818 | 0.939 | 0.499 | 0.424 | 0.396 | 0.31 | 0.285
2 | NCI-H1993 | 0.654 | – | 0.711 | 0.633 | 0.731 | 1.1 | 0.969 | 1.17 | 0.958 | 0.85 | 0.683 | 0.694 | 0.672 | 0.679 | 0.792 | 0.564 | 0.54 | 0.617 | 0.522 | 0.537
3 | NCI-H23 | 0.756 | 0.665 | 0.705 | 0.587 | 0.512 | 0.398 | 0.324 | 0.301 | 0.382 | 0.309 | 0.584 | 0.51 | 0.67 | 0.437 | 0.643 | 1.04 | 0.711 | 0.879 | 0.758 | 0.402
4 | NCI-H1437 | 0.959 | 0.869 | 1.04 | 0.85 | 0.755 | 0.667 | 0.618 | 0.634 | 0.563 | 0.617 | 1.1 | 1.04 | 0.993 | 0.984 | 0.986 | 0.462 | 0.368 | 0.565 | 0.408 | 0.325
5 | SK-MES-1 | 0.935 | 0.704 | 0.996 | 0.691 | 0.586 | 0.792 | 0.781 | 0.696 | 0.669 | 0.729 | 1.05 | 1.1 | 0.992 | 0.818 | 0.982 | 0.491 | 0.251 | 0.333 | 0.224 | 0.152
6 | NCI-H2405 | 1.06 | 0.599 | 0.805 | – | 0.605 | 0.905 | 0.844 | 1.04 | 0.789 | 0.867 | 0.992 | 1.09 | 1.03 | 0.803 | 1.01 | 0.226 | 0.216 | 0.22 | 0.207 | 0.208
7 | NCI-H2023 | 0.598 | 0.522 | 0.634 | 0.489 | 0.417 | 0.457 | 0.501 | 0.459 | 0.459 | 0.417 | 0.794 | 0.684 | 0.668 | 0.731 | 0.679 | 0.731 | 0.521 | 0.527 | 0.508 | 0.216
